# Entries after “also recorded” stand apart in the source; their conditions may differ.
# Experiments:
# plasma β-endorphin = plasma β-endorphin by radioimmunoassay over a tail radiation or mock regimen; assay type: in vivo, mice
# Source text: FIG. 4C illustrates the plasma beta-endorphin fluctuations in the C57BL/6 mice as described in FIGS. 4A and 4B. To obtain the data shown in FIG. 4C, blood was drawn once per week over the 6 week regimen, and for the 2 weeks following. The blood was drawn in the morning prior to the radiation treatment for that day. FIG. 4C uses data obtained by C57BL/6 male mice, 10 mice per treatment group. Mock exposed mice remained stable throughout the regimen.
# For all experiments, mice used were in a C57BL/6 background. In all experiments wild type mice were used, and in select experiments mice containing homozygous deletion of the p53 gene (p53−/−) were used. All mice were 8 weeks old at the beginning of each experiment. […] Blood Draws and Preparation for Radioimmunoassay Mice were placed in a standard restrainer. A 30-gauge needle was inserted into the tail vein, and 200 uL of blood was collected in EDTA microvette tubes containing 5 TIU aprotinin. Tubes were maintained on ice at all times. Tubes were spun at 3500 rpm at 4° C. for 20 minutes. Plasma was isolated for β-endorphin measurement by commercially available radioimmunoassay (Phoenix Pharmaceuticals). […]
# UV-exposed C57BL/6 mice = test: pain thresholds (von Frey and hot plate) over daily low-dose UVB exposure; assay type: in vivo; settings: UVB 50 mJ/cm2/day, 5 days/week for 6 weeks, 10 mg/kg ip 15 minutes before testing
# Description: To obtain the data shown in FIGS. 7A, 7B and 7C, eight-week-old male C57BL/6 mice were dorsally depilated and either exposed to 50 mJ/cm2/day or mock exposed 5 days/week for 6 weeks. Blood was drawn prior to, once weekly during, and once weekly for 2 weeks following the end of the regimen for β-endorphin measurement. In addition, pain thresholds in both the von Frey and hot plate assay were measured prior to, twice weekly during, and twice weekly for 2 weeks following the end of the regimen. One subgroup of UV-exposed mice and one subgroup of mock-treated mice were injected with naloxone (10 mg/kg, ip) and another subgroup of UV-exposed mice and mock-treated mice were injected with saline (ip) 15 minutes prior to each pain threshold testing. Pain threshold measurements were taken on 2 non-consecutive days and on a different day from the blood draws each week. […] Error bars indicate +/−SEM. […] Error bars indicate +/− standard deviation. […]
# Eight-week-old male C57BL/6 mice were dorsally depilated and either exposed to 50 mJ/cm2/day or mock exposed 5 days/week for 6 weeks. […] In addition, pain thresholds in both the von Frey and hot plate assay were measured prior to, twice weekly during, and twice weekly for 2 weeks following the end of the regimen. […]
compound,measurement,setting,value
C=CCN1CC[C@]23c4c5ccc(O)c4O[C@H]2C(=O)CC[C@@]3(O)[C@H]1C5 [naloxone],change in plasma beta-endorphin levels,"plasma β-endorphin; mock-exposed mice, 10 mg/kg",no increase in plasma beta-endorphin levels
same,change in plasma β-endorphin,"plasma β-endorphin; tail-irradiated mice, 10 mg/kg before behavioral testing, over the radiation regimen",most dramatic increase in plasma β-endorphin; also recorded: elevations in systemic beta-endorphin over and above the elevation caused by tail radiation alone
same,effect on UV-induced changes in pain thresholds / opioid-mediated phenotypes,UV-exposed C57BL/6 mice,naloxone-reversible; also recorded: reversed
